ChEMBL document CHEMBL5380858 (J Med Chem, 2023)

Tests used:
[1] = Selectivity index, ratio of CC50 for cytotoxicity against human Huh7.5 cells to EC50 for antiviral activity against SARS CoV-2 USA-WA1/2020 infected in human Huh7.5 cells; format: toxicity, cell-based; details: read-out: Ratio CC50/EC50
[2] = Selectivity index, ratio of CC50 for african green monkey Vero/TMPRSS2 cells to EC50 for antiviral activity against SARS CoV-2 USA-WA1/2020 infected in Vero/TMPRSS2 cells; format: toxicity, cell-based; details: read-out: Ratio CC50/EC50
[3] = Selectivity index, ratio of CC50 for cytotoxicity against human calu-3 cells to EC50 for antiviral activity against SARS CoV-2 USA-WA1/2020 infected in human Calu-3 cells; format: toxicity, cell-based; details: read-out: Ratio CC50/EC50
[4] = Selectivity index, ratio of CC50 for cytotoxicity against human iPSC-lung cells to EC50 for antiviral activity against SARS CoV-2 USA-WA1/2020 infected in human iPSC-lung cells; format: toxicity, cell-based; details: read-out: Ratio CC50/EC50
SARS-CoV-2 [5] = experiment: Antiviral activity against SARS CoV-2 USA-WA1/2020 infected in Vero/TMPRSS2 cells pretreated for 30 to 60 mins followed by viral infection and measured after 38 hrs post infection by sytox green staining based immunofluorescence analysis; format: functional, organism-based; details: Severe acute respiratory syndrome coronavirus 2, USA-WA1/2020, Vero/TMPRSS2; for EC90: time 2310-2340 min
SARS-CoV-2 [6] = experiment: Antiviral activity against SARS CoV-2 USA-WA1/2020 infected in human iPSC-lung cells pretreated for 30 to 60 mins followed by viral infection and measured after 24 hrs post infection by sytox green staining based analysis; format: functional, organism-based; details: Severe acute respiratory syndrome coronavirus 2, USA-WA1/2020, iPSC-Lung cell; for EC90: time 1470-1500 min
SARS-CoV-2 [7] = experiment: Antiviral activity against SARS CoV-2 USA-WA1/2020 infected in human Huh7.5 cells pretreated for 30 to 60 mins followed by viral infection and measured after 48 hrs post infection by sytox green staining based immunofluorescence analysis; format: functional, organism-based; details: Severe acute respiratory syndrome coronavirus 2, USA-WA1/2020, Huh7.5; for EC90: time 2910-2940 min
[8] = Cytotoxicity against human Calu-3 cells assessed as reduction in cell viability incubated for 40 to 44 hrs by celltiter-glo assay; format: toxicity, cell-based; details: time 40-44 hrs
[9] = Cytotoxicity against african green monkey Vero/TMPRSS2 cells assessed as reduction in cell viability incubated for 38 hrs by celltiter glo assay; format: toxicity, cell-based; details: chlorocebus aethiops
[10] = Cytotoxicity against human Huh7.5 cells assessed as reduction in cell viability incubated for 48 hrs by celltiter glo assay; format: toxicity, cell-based, Huh-7.5
SARS-CoV-2 [11] = experiment: Potency index, ratio of remdesivir EC50 to test compound EC50 for antiviral activity against SARS CoV-2 USA-WA1/2020 infected in human Calu-3 cells pretreated for 30 to 60 mins followed by viral infection and measured after 40 to 44 hrs by sytox green staining based analysis; format: functional, Severe acute respiratory syndrome coronavirus 2; details: time 2430-2700 min
SARS-CoV-2 [12] = experiment: Antiviral activity against SARS CoV-2 USA-WA1/2020 infected in human Calu-3 cells pretreated for 30 to 60 mins followed by viral infection and measured after 40 to 44 hrs by sytox green staining based analysis; format: functional, organism-based, Severe acute respiratory syndrome coronavirus 2
[13] = Cytotoxicity against human iPSC-lung cells assessed as reduction in number of nuclei incubated for 24 hrs by celltiter glo assay; format: toxicity, cell-based, iPSC-Lung cell
SARS-CoV-2 [14] = experiment: Antiviral activity against SARS CoV-2 USA-WA1/2020 infected in human Calu-3 cells assessed as reduction in viral RNA pretreated for 30 mins followed by viral infection and measured after 48 hrs by qRT-PCR analysis; format: functional, organism-based; details: Severe acute respiratory syndrome coronavirus 2, USA-WA1/2020, Calu-3
[15] = Cytotoxicity against human Calu-3 cells assessed as reduction in cell viability incubated for 48.5 hrs by CellTiter-Glo assay; format: toxicity, cell-based
[16] = Severe acute respiratory syndrome coronavirus 2, USA-WA1/2020, Calu-3
[17] = Severe acute respiratory syndrome coronavirus 2, USA-WA1/2020, Calu-3, time 2430-2700 min

| Structure (SMILES) | selectivity ratio [1] | selectivity ratio [2] | selectivity ratio [3] | other results |
| --- | --- | --- | --- | --- |
| CCCCCCCCCCCCCCCCCCOC[C@H](COP(=O)(O)OC[C@H]1O[C@@](C#N)(c2ccc3c(N)ncnn23)[C@H](O)[C@@H]1O)OCc1ccc(OC)c(F)c1 | 1170 | > 561 | 656 | selectivity ratio [4]: > 119 |
| CCCCCCCCCCCCCCCCCCOC[C@H](COP(=O)(O)OC[C@H]1O[C@@](C#N)(c2ccc3c(N)ncnn23)[C@H](O)[C@@H]1O)OCc1ccc(C(F)(F)F)cc1 | – | – | 509 | – |
| CCCCCCCCCCCCCCCCCCOC[C@H](COP(=O)(O)OC[C@H]1O[C@@](C#N)(c2ccc3c(N)ncnn23)[C@H](O)[C@@H]1O)OCc1ccc(C#N)cc1 | 1970 | – | 1400 | – |
| CCCCCCCCCCCCCCCCOC[C@H](COP(=O)(O)OC[C@H]1O[C@@](C#N)(c2ccc3c(N)ncnn23)[C@H](O)[C@@H]1O)OCc1ccccc1 | > 763 | > 248 | 934 | – |
| CCCCCCCCCCCCCCCCOC[C@H](COP(=O)(O)OC[C@H]1O[C@@](C#N)(c2ccc3c(N)ncnn23)[C@H](O)[C@@H]1O)OCc1ccc(OC)c(F)c1 | 1180 | > 246 | 1480 | selectivity ratio [4]: > 153 |
| CCCCCCCC/C=C\CCCCCCCCOC[C@H](COP(=O)(O)OC[C@H]1O[C@@](C#N)(c2ccc3c(N)ncnn23)[C@H](O)[C@@H]1O)OCc1ccc(OC)c(F)c1 | > 1850 | > 333 | 839 | EC50 (SARS-CoV-2 [5]): 0.3 µM; EC90 (SARS-CoV-2 [5]): 0.554 µM; EC50 (SARS-CoV-2 [6]): 0.082 µM; EC90 (SARS-CoV-2 [6]): 0.175 µM; EC50 (SARS-CoV-2 [7]): 0.054 µM; EC90 (SARS-CoV-2 [7]): 0.095 µM; CC50 [8]: 58.7 µM; CC50 at 38 h [9]: > 100 µM; CC50 at 48 h [10]: > 100 µM; Ratio EC50 (SARS-CoV-2 [11]): 3.3; EC50 (SARS-CoV-2 [12]; [16]): 0.07 µM; EC90 (SARS-CoV-2 [12]; [17]): 0.149 µM; CC50 at 24 h [13]: > 20 µM; selectivity ratio [4]: > 243 |
| CCCCCCCCCCCCCCCCCCOC[C@H](COP(=O)(O)OC[C@H]1O[C@@](C#N)(c2ccc3c(N)ncnn23)[C@H](O)[C@@H]1O)OCCC1CCCCC1 | 758 | – | 685 | – |
| CCCCCCCCCCCCCCCCCCOC[C@H](COP(=O)(O)OC[C@H]1O[C@@](C#N)(c2ccc3c(N)ncnn23)[C@H](O)[C@@H]1O)OCc1ccccc1C#N | > 980 | > 337 | 909 | EC50 (SARS-CoV-2 [5]): 0.296 µM; CC50 at 38 h [9]: > 1010 µM |
| CCCCCCCCCCCCCCCCCCOC[C@H](COP(=O)(O)OC[C@H]1O[C@@](C#N)(c2ccc3c(N)ncnn23)[C@H](O)[C@@H]1O)OCc1cccc(C#N)c1 | 2070 | – | 1810 | – |
| CCCCCCCC/C=C\CCCCCCCCOC[C@H](COP(=O)(O)OC[C@H]1O[C@@](C#N)(c2ccc3c(N)ncnn23)[C@H](O)[C@@H]1O)OCc1ccccc1 | > 917 | > 341 | 410 | EC50 (SARS-CoV-2 [5]): 0.293 µM; EC90 (SARS-CoV-2 [5]): 0.57 µM; EC50 (SARS-CoV-2 [6]): 0.267 µM; EC90 (SARS-CoV-2 [6]): 0.555 µM; EC50 (SARS-CoV-2 [7]): 0.109 µM; EC90 (SARS-CoV-2 [7]): 0.224 µM; CC50 [8]: 79.2 µM; CC50 at 38 h [9]: > 100 µM; CC50 at 48 h [10]: > 100 µM; EC50 (SARS-CoV-2 [12]; [16]): 0.193 µM; EC90 (SARS-CoV-2 [12]; [17]): 0.324 µM; CC50 at 24 h [13]: > 20 µM; selectivity ratio [4]: > 74 |
| CCCCCCCCCCCCCCCCCCOC[C@H](COP(=O)(O)OC[C@H]1O[C@@](C#N)(c2ccc3c(N)ncnn23)[C@H](O)[C@@H]1O)OCc1cccc(C(F)(F)F)c1 | – | – | 418 | – |
| CCCCCCCCCCCCCCCCCCOC[C@H](COP(=O)(O)OC[C@H]1O[C@@](C#N)(c2ccc3c(N)ncnn23)[C@H](O)[C@@H]1O)OCCCCCCCC | > 177 | > 129 | > 255 | EC50 (SARS-CoV-2 [12]; calu-3): 0.16 µM; EC90 (SARS-CoV-2 [12]; time 2430-2700 min): 0.625 µM |
| CCCCCCCCCCCCCCOC[C@H](COP(=O)(O)OC[C@H]1O[C@@](C#N)(c2ccc3c(N)ncnn23)[C@H](O)[C@@H]1O)OCc1ccccc1 | > 636 | > 110 | > 469 | – |
| CCCCCCCCCCCCCCCCCCOC[C@H](COP(=O)(O)OC[C@H]1O[C@@](C#N)(c2ccc3c(N)ncnn23)[C@H](O)[C@@H]1O)OCc1cccc(F)c1 | 392 | > 369 | 422 | – |
| N#C[C@@]1(c2ccc3c(N)ncnn23)O[C@H](CO)[C@@H](O)[C@H]1O [GS-441524] | – | – | > 666 | EC50 (SARS-CoV-2 [14]): 0.15 µM; EC90 (SARS-CoV-2 [14]; time 48.5 hrs): 0.18 µM; CC50 at 48.5 h [15]: > 100 µM |
